Measured values: US11760773B2, “Small molecule drug conjugates of gemcitabine monophosphate” (MaveriX Oncology, Inc., priority 2018, dated 2023)

Key:
UT-SCC-5 = assay: Tumor cell proliferation (alamarBlue) cytotoxicity assay, UT-SCC-5; type: cell-based, human; conditions: Homo sapiens; UT-SCC-5, 72 hours treatment
Protocol: (§1) A tumor cell proliferation assay was used to determine cytotoxicity IC50 values for the phosphate prodrug Compounds 1-9, the parent non-phosphorylated SMDC parent compounds, and the effector (gemcitabine) across eight primary early-passage human head and neck squamous cell carcinoma cell lines including UT-SCC-5, UT-SCC-8, UT-SCC-9, UT-SCC-10, UT-SCC-14, UT-SCC-16A, UT-SCC-16B, and UT-SCC-24A.
(§2) UTSCC cells were seeded at 4000 cells/100 I/well on 96-well black clear-bottom tissue culture plate. Cells were incubated at 37° C. and 5% CO2 overnight to allow them to recover and re-attach. The next day cells were treated with the test compound (0-100 μM) for 72 hours. After treatment, cell proliferation was measured by Fluorescent quantitation of alamarBlue reagent. The alamarBlue assay incorporates a fluorometric/colorimetric growth indicator based on detection of metabolic activity. Specifically, resazurin, the active ingredient of alamarBlue reagent, is blue in color and virtually non-fluorescent. Upon entering cells, resazurin is reduced to resorufin, a compound that is red in color and highly fluorescent.
(§3) Continued cell growth maintains a reduced environment, therefore increasing the overall fluorescence and color of the media surrounding cells. The fluorescence intensity of alamarBlue reagent was directly proportional to cell number. To perform the alamarBlue assay, 10 I of alamarBlue reagent was added to each well and the plate was incubated at 37° C. for an additional 2 hour. Fluorescence intensity was measured at an excitation of 530 nm and an emission of 590 nm using a BioTek Synergy™ 2 microplate reader.
(§4) Cell proliferation assays in triplicate were performed at each concentration. The fluorescent intensity data were analyzed using the computer software, Graphpad Prism. In the absence of the compound, the fluorescent intensity (Ft) in each data set was defined as 100%. In the absence of cells, the fluorescent intensity (Fb) in each data set was defined as 0%. The percent cell in the presence of each compound was calculated according to the following equation: % cell=(F−Fb)/(Ft−Fb), where F=the fluorescent intensity in the presence of the compound, Fb=the fluorescent intensity in the absence of cells, and Ft=the fluorescent intensity in the absence of the compound. The values of % cell versus a series of compound concentrations were then plotted using non-linear regression analysis of Sigmoidal dose-response curve generated with the equation Y=B+(T−B)/1+10^((Log EC50-X)×Hill Slope) where Y=percent cell, B=minimum percent cell, T=maximum percent cell, X=logarithm of compound and Hill Slope=slope factor or Hill coefficient. The IC50 value was determined by the concentration causing a half-maximal percent activity.

UT-SCC-16B = assay: Tumor cell proliferation (alamarBlue) cytotoxicity assay, UT-SCC-16B; type: cell-based, human; conditions: Homo sapiens, 72 hours treatment
Protocol: as §1, §2, §3, §4

UT-SCC-9 = assay: Tumor cell proliferation (alamarBlue) cytotoxicity assay, UT-SCC-9; type: cell-based, human; conditions: Homo sapiens; UT-SCC-9, 72 hours treatment
Protocol: as §1, §2, §3, §4

UT-SCC-8 = assay: Tumor cell proliferation (alamarBlue) cytotoxicity assay, UT-SCC-8; type: cell-based, human; conditions: Homo sapiens; UT-SCC-8, 72 hours treatment
Protocol: as §1, §2, §3, §4

Rat plasma stability = type: in vitro ADME
Protocol: (§5) Method: Assay was carried out in 96-well microtiter plates. Compounds were incubated in replicates (n=2) for 0, 5, 15, 30, and 45 minutes at 37° C. Reaction mixtures (20 μL) contained a final concentration of 3 μM test compound in fresh Sprague Dawley rat plasma. Eucatropine is a positive control to verify assay performance. Linear regression of semi-log plot of % remaining of compounds versus time used to determine the half-life t1/2 values.

Human liver S9 stability = type: in vitro ADME; conditions: for microsomal CLint: human
[1] = Liver microsomal stability, monkey; type: in vitro ADME; conditions: monkey liver microsomes
[2] = Liver microsomal stability, rat; type: in vitro ADME; conditions: rat liver microsomes
[3] = CD-1 mouse plasma stability; type: in vitro ADME
Protocol: as §5, with “CD-1 mouse” for “Sprague Dawley rat”, “included as” for “is a”

Human plasma stability = type: in vitro ADME
Protocol: as §5, with “human” for “fresh Sprague Dawley rat”, “included as” for “is a”, “t½” for “t1/2”

Solubility / formulation = type: physicochemical
Rat liver S9 stability = type: in vitro ADME; conditions: for microsomal CLint: rat
[4] = Liver microsomal stability, mouse; type: in vitro ADME; conditions: mouse liver microsomes

Nc1ccn([C@@H]2O[C@H](CO)[C@@H](O)C2(F)F)c(=O)n1 [Gemcitabine, gemcitabine]
IC50 (UT-SCC-5): 9 nM | IC50 (UT-SCC-16B): 99 nM | IC50 (UT-SCC-9): 35 nM | IC50 (UT-SCC-8): 22 nM

COc1cc(OC)c2oc(COC(=O)Nc3ccn([C@@H]4O[C@H](CO)[C@@H](O)C4(F)F)c(=O)n3)cc2c1 [Int 1-4, (5,7-di(methoxy)benzofuran-2-yl)methyl (1-((2R,4R,5R)-3,3-difluoro-4-hydroxy-5-(hydroxymethyl)tetrahydrofuran-2-yl)-2-oxo-1,2-dihydropyrimidin-4-yl)carbamate]
IC50 (UT-SCC-5): 16 nM | IC50 (UT-SCC-16B): 162 nM | Slope Mean ± SE (Rat plasma stability; Sprague Dawley rat plasma, 3 μM, 37° C.): −0.009305 ± 0.001423 | half-life at 3 μM (Rat plasma stability; Sprague Dawley rat plasma, read-out: t1/2 (converted)): ~1.2 h | half-life at 3 μM (Rat plasma stability; fresh Sprague Dawley rat plasma, 3 μM, 37° C., read-out: t1/2 Mean ± SE): 1.24 ± 0.19 h | Slope Mean ± SE (Human liver S9 stability; human liver S9): −0.005545 ± 0.000717 | half-life (Human liver S9 stability; human liver S9, read-out: t1/2 Mean ± SE): 2.08 ± 0.27 h | microsomal CLint (Human liver S9 stability; liver S9, human liver S9, summary, read-out: S9 intrinsic clearance Clint): < 2.5 µL/min/mg | microsomal CLint (Human liver S9 stability; liver S9, human liver S9, text value, read-out: intrinsic clearance value): 2.22 µL/min/mg | microsomal CLint (Human liver S9 stability; liver S9, human liver S9, read-out: CLint Mean ± SE): 2.22 ± 0.287 µL/min/mg | half-life [1]: 0.567 h | microsomal CLint [1]: 40.8 µL/min/mg | Compound Remaining (% of 0 min) 0 min ([1]; 0 min): 100 % of 0 min | Compound Remaining (% of 0 min) 5 min ([1]; 5 min): 99.5 % of 0 min | Compound Remaining (% of 0 min) 15 min ([1]; 15 min): 79.8 % of 0 min | Compound Remaining (% of 0 min) 30 min ([1]; 30 min): 61.0 % of 0 min | Compound Remaining (% of 0 min) 45 min ([1]; 45 min): 40.5 % of 0 min | Compound Remaining (% of 0 min) control ([1]; control): 97.2 % of 0 min | CLint [2]: 297 μL/min/mg protein | half-life [2]: 4.66 min | microsomal CLint [2]: 297 µL/min/mg | Compound Remaining (% of 0 min) 0 min ([2]; 0 min): 100 % of 0 min | Compound Remaining (% of 0 min) 5 min ([2]; 5 min): 64.7 % of 0 min | Compound Remaining (% of 0 min) 15 min ([2]; 15 min): 20.0 % of 0 min | Compound Remaining (% of 0 min) 30 min ([2]; 30 min): 1.81 % of 0 min | Compound Remaining (% of 0 min) 45 min ([2]; 45 min): 0.13 % of 0 min | Compound Remaining (% of 0 min) control ([2]; control): 95.6 % of 0 min | Slope Mean ± SE ([3]; 3 μM, 37° C., in min-1 (unit assumed)): −0.000906 ± 0.000706 | half-life at 3 μM ([3]; fresh CD-1 mouse plasma, 3 μM, 37° C., read-out: t1/2 Mean ± SE): 12.8 ± 9.94 h | half-life at 3 μM ([3]; read-out: t1/2 (converted)): ~13 h | IC50 (UT-SCC-9): 39 nM | IC50 (UT-SCC-8): 32 nM | Slope Mean ± SE (Human plasma stability; 3 μM, 37° C., semi-log plot of % remaining versus time, in min-1 (unit assumed)): 0.001033 ± 0.001249 | stability in human plasma (Human plasma stability; repeat measurements): stable | solubility (Solubility / formulation): low to moderate solubility | formulated to (Solubility / formulation; formulation): 50 mg/mL | Slope Mean ± SE (Rat liver S9 stability; rat liver S9): −0.03579 ± 0.001471 | intrinsic clearance value (Rat liver S9 stability; rat liver S9, text value): ~14 μL/min/mg protein | half-life (Rat liver S9 stability; rat liver S9, read-out: t1/2 Mean ± SE): 0.323 ± 0.0133 h | microsomal CLint (Rat liver S9 stability; liver S9, rat liver S9, text value, read-out: intrinsic clearance value): 14.3 µL/min/mg | microsomal CLint (Rat liver S9 stability; liver S9, rat liver S9, read-out: CLint Mean ± SE): 14.3 ± 0.588 µL/min/mg | half-life [4]: 1.35 h | microsomal CLint [4]: 17.1 µL/min/mg | Compound Remaining (% of 0 min) 0 min ([4]; 0 min): 100 % of 0 min | Compound Remaining (% of 0 min) 5 min ([4]; 5 min): 102 % of 0 min | Compound Remaining (% of 0 min) 15 min ([4]; 15 min): 78.4 % of 0 min | Compound Remaining (% of 0 min) 30 min ([4]; 30 min): 73.6 % of 0 min | Compound Remaining (% of 0 min) 45 min ([4]; 45 min): 70.7 % of 0 min | Compound Remaining (% of 0 min) control ([4]; control): 93.2 % of 0 min
